Source: patent publication US12329769B2, “Use of Abelmoschi corolla extract in preparation of drug for treating fibrosis” (SUZHONG PHARMACEUTICAL GROUP CO., LTD., priority 2019, dated 2025)

Key:
[1] = system: fibrosis of NRK-49F cells stimulated by TGF-β1; experiment: In-vitro anti-fibrosis effect: WB of Collagen I and α-SMA in NRK-49F cells stimulated by TGF-β1; assay type: cell-based; conditions: 30 μM monomer constituent, added 30 minutes before TGF-β1, co-incubation 24 hours, FIG. 3
Method: NRK-49F cells were inoculated into a 6-well plate at a density of 5×10^5 cells/well, and cultured in a DMEM medium containing 10% fetal bovine serum for 16 hours. After adding 50 μg/mL Abelmoschi corolla extract and each elution fraction constituent of macroporous resin and 30 μM monomer constituent of Abelmoschus manihot for 30 minutes, 10 mg/mL TGF-β1 was added. After co-incubation for 24 hours, cell proteins were extracted for a WB experiment to detect expression of Collagen I and α-SMA proteins, so as to judge the in-vitro anti-fibrosis effects of the Abelmoschi corolla extract and each elution constituent of macroporous resin and the monomer constituent.

NRK-49F cells = experiment: MTT test of effect on activity of NRK-49F cells; assay type: cell-based; conditions: 30 μM monomer constituent, co-incubation 24 hours
Method: NRK-49F cells were inoculated into a 96-well plate at a density of 5×10^3 cells/well, and cultured in a DMEM medium containing 10% fetal bovine serum for 16 hours. 50 μg/mL gradient elution constituent solution of macroporous resin of an Abelmoschi corolla extract or 30 μM of monomer constituents of the Abelmoschi corolla extract were added. After co-incubation for 24 hours, an original culture solution was removed, and 100 μL of 0.5 mg/mL MTT was added into each well. After incubation in an incubator for 4 hours, a staining solution was removed, and 150 μL of DMSO was added for detection by a microplate reader.

Compound | expression of Collagen I protein (WB) [1] | expression of α-SMA protein (WB) [1] | activity of the NRK-49F cells (MTT) (NRK-49F cells)
O=C(O)C1OC(Oc2c(O)cc(O)c3c(=O)c(OC4OC(CO)C(O)C(O)C4O)c(-c4ccc(O)c(O)c4)oc23)C(O)C(O)C1O [compound 6, Gossypetin-3-O-β-D-glucose-8-O-β-D-glucuronide] | significantly inhibit | significantly inhibit | –
O=c1c(O)c(-c2cc(O)c(O)c(O)c2)oc2cc(O)cc(O)c12 [compound 18, Myricetin] | – | – | significantly inhibit
O=c1c(O)c(-c2ccc(O)c(O)c2)oc2cc(O)cc(O)c12 [compound 20, Quercetin] | significantly inhibit | significantly inhibit | –
